{"source": "patent US8324250B2", "about": "(Hoffmann-La Roche Inc., priority 2009, dated 2012)"}
{"target": "T1, recombinant human NK3 receptor (Homo sapiens, UniProt P29371)", "T1 construct": "expressed in transfected cells; host or cells: HEK293 cells (transient expression), membranes", "T1 sequence (P29371 1-465)": "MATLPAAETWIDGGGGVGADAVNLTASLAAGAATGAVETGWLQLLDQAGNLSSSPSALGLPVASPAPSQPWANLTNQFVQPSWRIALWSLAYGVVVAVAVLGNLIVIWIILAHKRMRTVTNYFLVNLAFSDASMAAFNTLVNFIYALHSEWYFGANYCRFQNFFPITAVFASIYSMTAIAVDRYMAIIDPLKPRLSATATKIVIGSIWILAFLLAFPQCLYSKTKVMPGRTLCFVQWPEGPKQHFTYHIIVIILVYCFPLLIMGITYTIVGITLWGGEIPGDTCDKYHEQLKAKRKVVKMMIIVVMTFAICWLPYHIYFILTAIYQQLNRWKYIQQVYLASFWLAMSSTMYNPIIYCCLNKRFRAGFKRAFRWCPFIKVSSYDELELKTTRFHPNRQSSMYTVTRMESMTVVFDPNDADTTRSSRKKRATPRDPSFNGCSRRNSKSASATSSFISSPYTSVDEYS", "experiment": "[3H]SR142801 competition binding assay", "settings": "membranes from HEK293 cells transiently expressing recombinant human NK3 receptor; [3H]SR142801 radioligand; 75 min at RT; Ki by Cheng-Prussoff; read-out: Data Ki (hNK-3 receptor affinity)", "how_it_was_run": "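Membranes from HEK293 cells transiently expressing the receptor, 5 μg protein/well, in 50 mM Tris-HCl pH 7.4 with 4 mM MnCl2, 1 μM phosphoramidon, 0.1% BSA; nonspecific binding defined with 10 μM SB222200. Filtration and scintillation counting; IC50 from Hill fit, Ki by Cheng-Prussoff using saturation-derived KD, duplicates.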", "units": {"Ki": "µM"}}
{"smiles": "CC(C)CC1(C(=O)N[C@@H](C)c2ccc(F)cc2)CCN(C(=O)c2ccc(-c3ccc(F)cc3)cc2)CC1", "note": "[Example 122, 1-(4′-Fluoro-biphenyl-4-carbonyl)-4-isobutyl-piperidine-4-carboxylic acid [(S)-1-(4-fluoro-phenyl)-ethyl]-amide]", "Ki": 0.0257}
{"smiles": "O=C(c1ccc(-c2ccc(F)cc2)cc1)N1CCC(C(=O)NC(c2ccccc2)C2CC2)(c2ccc(F)cc2)CC1", "note": "(centres unmarked) [Example 147, 1-(4′-Fluoro-biphenyl-4-carbonyl)-4-(4-fluoro-phenyl)-piperidine-4-carboxylic acid (cyclopropyl-phenyl-methyl)-amide]", "Ki": 0.0176}
{"smiles": "O=C(c1ccc(-c2ccc(F)cc2)cc1)N1CCC(C(=O)N[C@@H](CO)c2ccc(F)cc2)(c2ccc(F)cc2)CC1", "note": "[Example 151, 1-(4′-Fluoro-biphenyl-4-carbonyl)-4-(4-fluoro-phenyl)-piperidine-4-carboxylic acid [(R)-1-(4-fluoro-phenyl)-2-hydroxy-ethyl]-amide]", "Ki": 0.0115}
{"smiles": "Cc1nc(-c2ccc(C(=O)N3CCC(C(=O)N[C@@H](C)c4ccccc4)(c4ccccc4)CC3)cc2)cs1", "note": "[Example 68]", "Ki": 0.0209}
{"smiles": "CC(=O)c1ccc(N2CCN(C(=O)N3CCC(C(=O)N[C@@H](C)c4ccccc4)(c4ccccc4)CC3)CC2)cc1", "note": "[Example 207, 1-[4-(4-Acetyl-phenyl)-piperazine-1-carbonyl]-4-phenyl-piperidine-4-carboxylic acid ((S)-1-phenyl-ethyl)-amide]", "Ki": 0.0363}
{"smiles": "Cc1noc(C2CCN(C(=O)N3CCC(C(=O)N[C@@H](C)c4ccc(F)cc4)(c4ccccc4)CC3)CC2)n1", "note": "[Example 221, 1-[4-(3-Methyl-[1,2,4]oxadiazol-5-yl)-piperidine-1-carbonyl]-4-phenyl-piperidine-4-carboxylic acid [(S)-1-(4-fluoro-phenyl)-ethyl]-amide]", "Ki": 0.0117}
{"smiles": "Cc1cccc(N2CCN(C(=O)N3CCC(C(=O)N[C@@H](C)c4ccccc4)(c4ccccc4)CC3)CC2)c1", "note": "[Example 226, 4-Phenyl-1-(4-m-tolyl-piperazine-1-carbonyl)-piperidine-4-carboxylic acid ((S)-1-phenyl-ethyl)-amide]", "Ki": 0.0648}
{"smiles": "C[C@H](NC(=O)C1(c2ccccc2)CCN(C(=O)c2ccc(-c3ccccn3)cc2)CC1)c1ccccc1", "note": "[Example 6, 4-Phenyl-1-(4-pyridin-2-yl-benzoyl)-piperidine-4-carboxylic acid ((S)-1-phenyl-ethyl)-amide]", "Ki": 0.0409}
{"smiles": "C[C@H](NC(=O)C1(c2ccccc2)CCN(C(=O)c2ccc(-c3ccc(N)cc3)cc2)CC1)c1ccccc1", "note": "[Example 64, 1-(4′-Amino-biphenyl-4-carbonyl)-4-phenyl-piperidine-4-carboxylic acid ((S)-1-phenyl-ethyl)-amide]", "Ki": 0.0727}
{"smiles": "C[C@H](NC(=O)C1(c2ccccc2)CCN(C(=O)c2ccc(N3CCCCC3=O)cc2)CC1)c1ccccc1", "note": "[Example 63]", "Ki": 0.0449}
{"smiles": "CC(C)C(NC(=O)C1(c2ccc(F)cc2)CCN(C(=O)c2ccc(N3CCCCC3=O)cc2)CC1)c1ccc(F)cc1", "note": "(centres unmarked) [Example 171, 4-(4-Fluoro-phenyl)-1-[4-(2-oxo-piperidin-1-yl)-benzoyl]-piperidine-4-carboxylic acid [1-(4-fluoro-phenyl)-2-methyl-propyl]-amide]", "Ki": 0.054}
{"smiles": "Cc1nc(-c2ccc(C(=O)N3CCC(C(=O)N[C@@H](C)c4ccc(F)cc4)(c4ccc(F)cc4)CC3)cc2)no1", "note": "[Example 168, 4-(4-Fluoro-phenyl)-1-[4-(5-methyl-[1,2,4]oxadiazol-3-yl)-benzoyl]-piperidine-4-carboxylic acid [(S)-1-(4-fluoro-phenyl)-ethyl]-amide]", "Ki": 0.036}
{"smiles": "C[C@H](NC(=O)C1(c2ccccc2)CCN(C(=O)N2CCN(c3cnccn3)CC2)CC1)c1ccccc1", "note": "[Example 209, 4-Phenyl-1-(2,3,5,6-tetrahydro-[1,2′]bipyrazinyl-4-carbonyl)-piperidine-4-carboxylic acid ((S)-1-phenyl-ethyl)-amide]", "Ki": 0.0584}
{"smiles": "CCc1nc(-c2ccc(C(=O)N3CCC(C(=O)N[C@@H](C)c4ccccc4)(c4ccccc4)CC3)cc2)no1", "note": "[Example 71, 1-[4-(5-Ethyl-[1,2,4]oxa-diazol-3-yl)-benzoyl]-4-phenyl-piperidine-4-carboxylic acid ((S)-1-phenyl-ethyl)-amide]", "Ki": 0.0284}
{"smiles": "O=C(c1ccc(-c2ccc(F)cc2)cc1)N1CCC(C(=O)NC2(c3ccc(F)cc3)CC2)(c2ccc(F)cc2)CC1", "note": "[Example 135, 1-(4′-Fluoro-biphenyl-4-carbonyl)-4-(4-fluoro-phenyl)-piperidine-4-carboxylic acid [1-(4-fluoro-phenyl)-cyclopropyl]-amide]", "Ki": 0.0267}
{"smiles": "C[C@H](NC(=O)C1(c2ccccc2)CCN(C(=O)c2ccc(N3CCS(=O)(=O)CC3)cc2)CC1)c1ccccc1", "note": "[Example 9, 1-[4-(1,1-Dioxo-lλ6-thiomorpholin-4-yl)-benzoyl]-4-phenyl-piperidine-4-carboxylic acid ((S)-1-phenyl-ethyl)-amide]", "Ki": 0.0218}
{"smiles": "Cc1nc(-c2ccc(C(=O)N3CCC(C(=O)N[C@@H](C)c4ccc(F)cc4)(C4CCCC4)CC3)cc2)no1", "note": "[Example 112, 4- Cyclopentyl-1-[4-(5-methyl-[1,2,4]oxa-diazol-3-yl)-benzoyl]-piperidine-4-carboxylic acid [(S)-1-(4-fluoro-phenyl)-ethyl]-amide]", "Ki": 0.0828}
{"smiles": "Cc1noc(-c2ccc(C(=O)N3CCC(C(=O)N[C@@H](C)c4ccc(Cl)cc4)(c4ccccc4)CC3)cc2)n1", "note": "[Example 104, 1-[4-(3-Methyl-[1,2,4]oxa-diazol-5-yl)-benzoyl]-4-phenyl-piperidine-4-carboxylic acid [(S)-1-(4-chloro-phenyl)-ethyl]-amide]", "Ki": 0.0112}
{"smiles": "C=C(C)CC1(C(=O)N[C@@H](C)c2ccc(F)cc2)CCN(C(=O)c2ccc(-c3ccc(F)cc3)cc2)CC1", "note": "[Example 113, 1-(4′-Fluoro-biphenyl-4-carbonyl)-4-(2-methyl-allyl)-piperidine-4-carboxylic acid [(S)-1-(4-fluoro-phenyl)-ethyl]-amide]", "Ki": 0.0356}
{"smiles": "Cc1noc(-c2ccc(C(=O)N3CCC(C(=O)N[C@@H](C)c4ccccc4)(c4ccccc4)CC3)cc2)n1", "note": "[Example 43, 1-[4-(3-Methyl-[1,2,4]oxa-diazol-5-yl)-benzoyl]-4-phenyl-piperidine 4-carboxylic acid ((S)-1-phenyl-ethyl)-amide]", "Ki": 0.0032}
{"smiles": "O=C(N1CCN(c2ccc(F)cc2)CC1)N1CCC(C(=O)NC2(c3ccc(F)cc3)CC2)(c2ccc(F)cc2)CC1", "note": "[Example 174]", "Ki": 0.024}
{"smiles": "C[C@H](NC(=O)C1(c2ccccc2)CCN(C(=O)N2CCN(c3ccc(F)cc3)CC2)CC1)C1CCCCC1", "note": "[Example 233, 1-[4-(4-Fluoro-phenyl)-piperazine-1-carbonyl]-4-phenyl-piperidine-4-carboxylic acid ((S)-1-cyclohexyl-ethyl)-amide]", "Ki": 0.0053}
{"smiles": "C[C@H](NC(=O)C1(c2ccccc2)CCN(C(=O)c2ccc(N3CCS(=O)(=O)CC3)cc2)CC1)c1ccc(Cl)cc1", "note": "[Example 101, 1-[4-(1,1-Dioxo-1λ6-thiomor-pholin-4-yl)-benzoyl]-4-phenyl-pipendine-4-carboxylic acid [(S)-1-(4-chloro-phenyl)-ethyl]-amide]", "Ki": 0.0174}
{"smiles": "Cc1noc(-c2ccc(C(=O)N3CCC(C(=O)NC(C)(C)c4ccccc4)(c4ccccc4)CC3)cc2)n1", "note": "[Example 116, 1-[4-(3-Methyl-[1,2,4]oxadiazol-5-yl)-benzoyl]-4-phenyl-piperidine-4-carboxylic acid (1-methyl-1-phenyl-ethyl)-amide]", "Ki": 0.0226}
{"smiles": "C[C@H](NC(=O)C1(c2ccc(F)cc2)CCN(C(=O)c2ccc(N3CCCCC3=O)cc2)CC1)c1cccc(F)c1", "note": "[Example 173, 4-(4-Fluoro-phenyl)-1-[4-(2-oxo-piperidin-1-yl)-benzoyl]-piperidine-4-carboxylic acid [(S)-1-(3-fluoro-phenyl)-ethyl]-amide]", "Ki": 0.043}
{"smiles": "C[C@H](NC(=O)C1(c2ccccc2)CCN(C(=O)c2ccc(-n3cnnn3)cc2)CC1)c1ccccc1", "note": "[Example 40, 4-Phenyl-1-(4-tetrazol-1-yl-benzoyl)-piperidine-4-carboxylic acid ((S)-1-phenyl-ethyl)-amide]", "Ki": 0.0285}
{"smiles": "C[C@H](NC(=O)C1(c2ccccc2)CCN(C(=O)c2ccc(-c3ccc(C(F)(F)F)cn3)cc2)CC1)c1ccccc1", "note": "[Example 45, 4-Phenyl-1-[4-(5-trifluorome-thyl-pyridin-2-yl)benzoyl]-piperidine-4-carboxylic acid ((S)-1-phenyl-ethyl)-amide]", "Ki": 0.0267}
{"smiles": "C[C@H](NC(=O)C1(c2ccccc2)CCN(C(=O)c2ccc(-c3ccc(F)cc3)cc2)CC1)c1ccc(Cl)cc1", "note": "[Example 102, 1-(4′-Fluoro-biphenyl-4-carbonyl)-4-phenyl-piperidine-4-carboxylic acid [(S)-1-(4-chloro-phenyl)-ethyl]-amide]", "Ki": 0.0172}
{"smiles": "Cc1noc(-c2ccc(C(=O)N3CCC(C(=O)N[C@H](c4cccc(F)c4)C4CC4)(c4ccc(F)cc4)CC3)cc2)n1", "note": "[Example 196, 4-(4-Fluoro-phenyl)-1-[4-(3-methyl-[1,2,4]oxadiazol-5-yl)-benzoyl]-piperidine-4-carboxylic acid [(S)-cyclopropyl-(3-fluoro-phenyl)-methyl]-amide]", "Ki": 0.0022}
